Data: US12263163B2 (Kronos Bio, Inc., priority 2013, dated 2025)

Tested on: human hepatocytes
Experiment: Human Hepatocyte Stability Assay (predicted hepatocyte clearance)
Format: in vitro ADME
Conditions: comparison table with known Syk inhibitors, head prints (units)
Protocol: The human […] stability of the compounds as predicted hepatocyte clearance in L/hr/kg was assessed. Compounds to be tested were diluted to 200 μM (4 μl of 10 mM DMSO stock into 196 μl ACN:H2O (50:50). Propranolol was used as a positive control, and buffer only without hepatocytes as 0% control. These were further diluted 4 μl with 891 μl KHB buffer (InVitroGRO catalog number Z99074) to provide 2× dosing solution. To each well of 24 well plate, 250 μl of the 2× dosing solution was added to each well with 250 μl of hepatocytes cells (1×10^6 viable cells/ml per well) or KHB for control samples to achieve a final compound concentration of 1 μM during incubation. The final solvent concentration was 0.01% DMSO and 0.25% ACN. The culture plate was placed on a rocker and incubated at 37° C., 5% CO2. Samples were collected at time 0, 1, 3, and 6 hours. The loss of parent compound was determined using LC-MS methods against a standard curve.

SMILES	Hheps CL
COc1ccc(Nc2nc(-c3cccc(N)c3)cn3ccnc23)cc1OC [6-(3-aminophenyl)-N-(3,4-dimethoxyphenyl)imidazo[1,2-a]pyrazin-8-amine, reference compound]	4 mL/min/kg
Cc1ncc(-c2cn3ccnc3c(Nc3ccc(N4CCOCC4)cc3)n2)cc1N [6-(5-amino-6-methylpyridin-3-yl)-N-(4-morpholinophenyl)imidazo[1,2-a]pyrazin-8-amine, reference compound]	13.3 mL/min/kg
Nc1cncc(-c2cn3ccnc3c(Nc3ccc(N4CCOCC4)cc3)n2)c1 [6-(5-aminopyridin-3-yl)-N-(4-morpholinophenyl)imidazo[1,2-a]pyrazin-8-amine, reference compound]	11.3 mL/min/kg
COc1ccc(Nc2nc(-c3ccc(N)nc3)cn3ccnc23)cc1OC [6-(6-aminopyridin-3-yl)-N-(3,4-dimethoxyphenyl)imidazo[1,2-a]pyrazin-8-amine, reference compound]	15 mL/min/kg
Cc1ncc(-c2cn3ccnc3c(Nc3ccc(N4CCN(C5COC5)CC4)cc3)n2)nc1N [Ex.-1, 6-(6-amino-5-methylpyrazin-2-yl)-N-(4-(4-(oxetan-3-yl)piperazin-1-yl)phenyl)imidazo[1,2-a]pyrazin-8-amine]	2 mL/min/kg
Nc1cncc(-c2cn3ccnc3c(Nc3ccc(N4CCN(C5COC5)CC4)cc3)n2)n1 [Ex.-2, 6-(6-aminopyrazin-2-yl)-N-(4-(4-(oxetan-3-yl)piperazin-1-yl)phenyl)imidazo[1,2-a]pyrazin-8-amine]	0.917 mL/min/kg
Nc1cncc(-c2cn3ccnc3c(Nc3ccc(N4CCO[C@@H](CO)C4)cc3)n2)n1 [Ex.-3, (R)-(4-(4-((6-(6-aminopyrazin-2-yl)imidazo[1,2-a]pyrazin-8-yl)amino)phenyl)morpholin-2-yl)methanol]	1.5 mL/min/kg
Cc1c(-c2cncc(N)n2)nc(Nc2ccc(N3CCN(C4COC4)CC3)cc2)c2nccn12 [Ex.-4, 6-(6-aminopyrazin-2-yl)-5-methyl-N-(4-(4-(oxetan-3-yl)piperazin-1-yl)phenyl)imidazo[1,2-a]pyrazin-8-amine]	1.3 mL/min/kg
Nc1cncc(-c2cn3ccnc3c(Nc3ccc(N4CCN(C5COC5)CC4)c(OCCO)c3)n2)n1 [Ex.-5, 2-(5-((6-(6-aminopyrazin-2-yl)imidazo[1,2-a]pyrazin-8-yl)amino)-2-(4-(oxetan-3-yl)piperazin-1-yl)phenoxy)ethanol]	1.2 mL/min/kg
Nc1cncc(-c2cn3ccnc3c(Nc3ccc(N4CCN(CC(CO)CO)CC4)cc3)n2)n1 [Ex.-6, 2-((4-(4-((6-(6-aminopyrazin-2-yl)imidazo[1,2-a]pyrazin-8-yl)amino)phenyl)piperazin-1-yl)methyl)propane-1,3-diol]	1.3 mL/min/kg
Cc1ncc(-c2cn3ccnc3c(Nc3ccc(N4CCN(C5COC5)CC4)c(OCCO)c3)n2)nc1N [Ex.-7, 2-(5-((6-(6-amino-5-methylpyrazin-2-yl)imidazo[1,2-a]pyrazin-8-yl)amino)-2-(4-(oxetan-3-yl)piperazin-1-yl)phenoxy)ethanol]	0.83 mL/min/kg
